The target in one series is T1, human IKr (hERG) (Homo sapiens, UniProt Q12809).
T1 construct: expressed in transfected cells; host or cells: HEK-293, stably transfected
Put plainly: Whole-cell patch-clamp recording of IKr in stably transfected HEK-293 cells expressing the hERG gene. Format: cell-based. The procedure:
Electrophysiological recordings of IKr in stably transfected HEK-293 cells were made in the whole cell configuration of the patch-clamp technique (Hamill et al, 1981) using an Axopatch 200B amplifier (Axon Instruments, Foster City, Calif.). Patch microelectrodes were pulled from 1.5-mm borosilicate glass tubing using a two-stage vertical pipette puller (Narishige, East Meadow, N.Y.). […] HEK-293 cells were plated in 35 mm plastic cell and tissue culture dishes for 2-3 days. For application of drug-containing solutions to cells, the SF-77B system (Warner Instrument Corp, Hamden, Conn.) was used. Solution exchanges were completed within 20 ms. Current data were digitized online using a DigiData 1200A analog-to-digital board (Axon Instruments) and stored on the hard disc of an IBM compatible Pentium computer (GP7-600 MHz, Gateway Computer, Sioux City, N. Dak.). […]
The effect of warfarin, 2,2,2-trifluoro-1-methyl-1-(trifluoromethyl)ethyl 4-[(4-hydroxy-2-oxo-2H-chromen-3-yl)methyl]benzoate and its corresponding acid metabolite, 4-[(4-hydroxy-2-oxo-2H-chromen-3-yl)methyl]benzoic acid on IKr was studied in a stably transfected HEK-293 cell line using a two-pulse protocol. […] Tail IKr amplitude was measured as the difference between the peak current and baseline current at −50 mV in control and in the presence of ATI-compounds when steady-state block was obtained.
(In general: The patch-clamp technique gives a direct electrical read-out from membranes.)

Series [1] in a line: Broad cellular and biochemical receptor screening assay. The settings on record: concentrations up to 10 μM.
Series [2] has as its target T2, vitamin K epoxide reductase (VKER) (Bos taurus, UniProt Q6B4J2).
T2 construct: Microsomes were prepared from fresh cow liver; from tissue; host or cells: fresh cow liver microsomes
T2 sequence (Q6B4J2 1-163): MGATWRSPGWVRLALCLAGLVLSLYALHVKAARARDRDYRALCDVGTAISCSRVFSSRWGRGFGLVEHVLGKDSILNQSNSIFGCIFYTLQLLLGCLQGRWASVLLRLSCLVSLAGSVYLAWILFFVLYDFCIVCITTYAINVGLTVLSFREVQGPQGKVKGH
Put plainly: Vitamin K epoxide reductase inhibition, bovine liver microsomal preparation, residual vitamin K epoxide by HPLC. Type of series: biochemical. How it is done: Compounds of the subject invention were tested against vitamin K epoxide reductase.
Briefly: increasing concentrations of compounds were incubated in the presence of vitamin K epoxide and in the presence of a bovine microsomal preparation containing vitamin K epoxide reductase. The amount of residual vitamin K epoxide at the end of the incubation period was directly proportional to the inhibitory activity of the test compounds on the enzyme.
Microsomes were prepared from fresh cow liver according to the method described in: “Purification of gamma-glutamyl carboxylase from bovine liver. Wu S M, Mutucumarana V P, and Stafford D W. Methods in Enzymology (1997) 282:346-57.”
Serial dilutions of test compounds were prepared as follows: Dissolve the test compounds to a final dilution of 10 mM either in water or in DMSO (if not soluble in water). From this mother solution, prepare 2 further dilutions by diluting it with water: one 200 μM solution and one 5 mM solution. Prepare a series of tubes as follows:
Remove 15 μL from tube 4 and add to tube 5, vortex, then remove 15 μL from tube 5 and add to tube 6, vortex, etc. . . . until 15 μL is added to tube 9. Vortex and then remove 15 μL from tube 9.
Prepare another set of 4 tubes and add 30 μL of water.
A reaction mixture consisting of 600 μL buffer (2.5M NaCl, 0.125M MOPS, pH7.5), 520 μL water, and 150 μL of 10% CHAPS was prepared. The tubes were kept on ice for 5 minutes and then 500 μL of microsomal preparation was added. The mixture was mixed by vortex and kept on ice for 10 min for sufficient solubilization. To this was added 150 μL of vitamin K epoxide solution (1.5 mg/ml in isopropanol), then again vortexed and kept on ice for 5 minutes. An aliquot (70 μL) of this reaction mix was added to each one of the series of tubes prepared as above and containing serial dilutions of test compounds in 30 μL of water. The tubes were then vortexed and then kept on ice for 5 min. To 2 of the water-containing tubes was added 500 μL of a stop reagent consisting of 5 volumes of 50 mM AgNO3 and 5 volumes of isopropanol. These 2 tubes were used to measure a zero value.
The tubes were placed in a 30 C mixer for 3 min and 5 μL of 100 mM DTT solution in water was added. The tubes were then vortexed and kept in the dark without shaking for another 20 min, at the end of which 500 μL of the stop reagent was added.
To each tube was then added 600 μL of a 100 μg/ml solution of vitamin E in hexane, the tubes were capped and then vortexed for 1 minute. The tubes were then centrifuged for 5 min at 5,000 g, and the upper layer (the hexane layer) was transferred to a series of fresh tubes. The hexane was evaporated at room temperature in the dark using a speedvac, and the resulting pellet was resuspended in 100 μL of methanol.
The amount of vitamin K epoxide in each sample was then measured using a HPLC determination method. Residual vitamin K epoxide was then plotted against test compound concentration.
Background: Liver microsomes are vesicles of endoplasmic reticulum, rich in cytochrome P450 enzymes.

The nature of series [3]: Metabolism in pooled human liver microsomes with NADPH (CYP450 + esterase). Format: in vitro ADME. The conditions noted are these: human, pooled human liver microsomes with NADPH regenerating system, pH 7.4, 2 μM final concentration, read-out: CYP + Esterase Est T½.
Series [4] relates to pooled human liver microsomes (CYP450 + esterase). The series is described as above. The settings on record: 2 μM final concentration. Type of series: in vitro ADME.
The nature of series [5]: Control incubation without microsomes (buffer stability). The conditions noted are these: 2 μM final concentration, no microsomes; for half-life at 2 μM: buffer without microsomes (control incubation), pH 7.4, read-out: Buffer Est T½. Format: physicochemical. How it is done:
Pooled human liver microsomes were used as an in vitro model of drug metabolism. These microsomes contain both esterase and CYP450 drug metabolizing enzymes. […] Test compounds dissolved in acetonitrile:DMSO (1:99) were added to a final concentration of 2 μM. Incubations were performed at 37° C. and samples (50 μL) were collected after 5, 15, 30, 60 and 90 minutes and then were precipitated by the addition of 100 μL of acetonitrile containing Internal Standard and centrifuged at 14,000 rpm for 15 min at 4° C. Samples were analyzed by LC/MS/MS for the content of parent drug.
All of the compounds were stable.

Series [6] in a line: Metabolism in pooled human liver microsomes without NADPH (esterase alone). Type of series: in vitro ADME. The conditions noted are these: human, pooled human liver microsomes without NADPH, pH 7.4, 2 μM final concentration, read-out: Esterase Est T½. How it is done:
(§1) Pooled human liver microsomes were used as an in vitro model of drug metabolism. These microsomes contain both esterase and CYP450 drug metabolizing enzymes. Pooled human microsomes were suspended in Tris buffer (50 mM, pH 7.4) at a final concentration of 1 mg/mL of microsomal protein. Test compounds dissolved in acetonitrile:DMSO (1:99) were added to a final concentration of 2 μM. Incubations were performed at 37° C. and samples (50 μL) were collected after 5, 15, 30, 60 and 90 minutes and then were precipitated by the addition of 100 μL of acetonitrile containing Internal Standard and centrifuged at 14,000 rpm for 15 min at 4° C. Samples were analyzed by LC/MS/MS for the content of parent drug.
(§2) To determine the role of CYP450 in the metabolism, incubations were run either with or without an NADPH regenerating system−NADPH is an obligate cofactor for CYP450 enzymes. Incubations that included NADPH cofactor represent the total metabolism by CYP450+ esterase. […] Thus, when the relative decline of parent drug observed is greater in the presence of NADPH, the metabolism is CYP450-mediated. When the relative decline is equivalent in the presence and absence of cofactor the metabolism is esterase mediated.

For series [7], the system named is pooled human liver microsomes (esterase). The description is as above. Format: in vitro ADME. The conditions noted are these: 2 μM final concentration. The procedure: as §1, §2

The structures appear in SMILES notation. Marks after values point to notes of the source that are not given here. Where only a bound is given, the exact number is not on record here.

T1 sequence (Q12809 whole entry): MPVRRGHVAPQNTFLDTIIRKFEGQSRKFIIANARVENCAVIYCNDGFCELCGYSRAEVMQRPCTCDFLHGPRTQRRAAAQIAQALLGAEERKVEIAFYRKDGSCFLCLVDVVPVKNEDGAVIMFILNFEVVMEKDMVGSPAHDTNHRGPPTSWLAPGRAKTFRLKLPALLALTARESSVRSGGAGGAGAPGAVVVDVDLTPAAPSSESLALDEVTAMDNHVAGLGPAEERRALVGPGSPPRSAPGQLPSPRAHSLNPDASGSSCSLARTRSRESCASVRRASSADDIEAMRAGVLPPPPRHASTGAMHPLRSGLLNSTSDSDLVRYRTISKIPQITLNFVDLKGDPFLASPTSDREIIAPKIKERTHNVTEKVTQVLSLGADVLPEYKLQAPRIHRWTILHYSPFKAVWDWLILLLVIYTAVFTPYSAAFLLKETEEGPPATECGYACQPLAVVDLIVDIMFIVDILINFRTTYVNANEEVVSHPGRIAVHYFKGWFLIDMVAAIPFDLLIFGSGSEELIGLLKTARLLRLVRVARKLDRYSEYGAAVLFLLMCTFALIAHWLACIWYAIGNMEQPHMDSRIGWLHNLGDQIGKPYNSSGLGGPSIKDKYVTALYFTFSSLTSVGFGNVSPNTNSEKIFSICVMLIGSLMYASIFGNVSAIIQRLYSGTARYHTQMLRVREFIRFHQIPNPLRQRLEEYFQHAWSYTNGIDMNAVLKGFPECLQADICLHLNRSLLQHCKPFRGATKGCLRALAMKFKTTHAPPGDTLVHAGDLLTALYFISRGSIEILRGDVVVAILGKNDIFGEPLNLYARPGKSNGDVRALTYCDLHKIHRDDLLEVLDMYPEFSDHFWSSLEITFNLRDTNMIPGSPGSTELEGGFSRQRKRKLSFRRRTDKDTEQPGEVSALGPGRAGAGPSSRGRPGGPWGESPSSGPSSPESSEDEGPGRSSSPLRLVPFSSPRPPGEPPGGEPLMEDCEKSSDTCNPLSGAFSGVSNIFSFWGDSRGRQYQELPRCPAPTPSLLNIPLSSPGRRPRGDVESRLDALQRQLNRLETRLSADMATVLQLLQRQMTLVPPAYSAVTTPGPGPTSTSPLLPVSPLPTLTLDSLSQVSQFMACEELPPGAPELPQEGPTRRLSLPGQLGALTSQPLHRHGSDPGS

The compound `CC(OC(=O)c1ccc(Cc2c(O)c3ccccc3oc2=O)cc1)(C(F)(F)F)C(F)(F)F` [2,2,2-trifluoro-1-methyl-1-(trifluoromethyl)ethyl 4-[(4-hydroxy-2-oxo-2H-chromen-3-yl)methyl]benzoate] displayed an IC50 against human IKr (hERG) greater than 100 µM. For the same compound, the “activity in broad cellular and biochemical receptor screening” value in series [1] was “Nor did either compound exhibit significant activity”.
The corresponding values for `O=C(O)c1ccc(Cc2c(O)c3ccccc3oc2=O)cc1` [4-[(4-hydroxy-2-oxo-2H-chromen-3-yl)methyl]benzoic acid] are greater than 1000 µM and “Nor did either compound exhibit significant activity”.
In turn, `O=C(O)c1ccc(Cc2c(O)c3ccccc3oc2=O)cc1` [drawing 28] yielded an IC50 in series [2] greater than 30 µM. Besides, the half-life at 2 μM in series [3] was greater than 1.5 h. In series [4], the “CYP + Esterase % Stability at 90 min” value was determined as 101%. In series [5], the “Buffer % Stability at 90 min” value is 99% and the half-life at 2 μM is greater than 1.5 h.
In series [2], `CC(OC(=O)c1ccc(Cc2c(O)c3ccccc3oc2=O)cc1)C(F)(F)C(F)(F)F` (racemic) returned an IC50 of 3.38 µM. Besides, the half-life at 2 μM in series [3], in series [6] and in series [5] was greater than 1.5 h in each case. In series [4], the “CYP + Esterase % Stability at 90 min” value turned out to be 69%. Further, the “Esterase % Stability at 90 min” value in series [7] is reported as 70%. For the same compound, in series [5], the “Buffer % Stability at 90 min” value is reported as 108%.
In series [2], `CC(OC(=O)c1ccc(Cc2c(O)c3ccccc3oc2=O)cc1)C(F)(F)C(F)(F)F` (stereo not shown) [drawing 32] showed an IC50 of 4.15 µM. Also, in series [4], the “CYP + Esterase Est T½” value is roughly 0.5 h and the “CYP + Esterase % Stability at 90 min” value is reported as 24%. Also, in series [7], the “Esterase Est T½” value is roughly 0.5 h and the “Esterase % Stability at 90 min” value came to 27%. Moreover, the “Buffer % Stability at 90 min” value in series [5] was 113%.
On to `CC(OC(=O)c1ccc(Cc2c(O)c3ccccc3oc2=O)cc1)(C(F)(F)F)C(F)(F)F` [drawing 30], for which 5.07 µM corresponded to half-maximal inhibition in series [2] (IC50). In addition, the half-life at 2 μM in series [3], in series [6] and in series [5] was greater than 1.5 h each time. In series [4], the “CYP + Esterase % Stability at 90 min” value is on record as 90%** (>90 min). Also, the “Esterase % Stability at 90 min” value in series [7] was 96%. Also, the “Buffer % Stability at 90 min” value in series [5] is listed as 92%.
`CC(OC(=O)c1ccc(Cc2c(O)c3ccccc3oc2=O)cc1)C(F)(F)C(F)(F)F` (stereo not shown) [drawing 31]: inhibition in series [2] was half-maximal at 4.02 µM (IC50). Moreover, in series [4], the “CYP + Esterase Est T½” value is greater than 1.5 h and the “CYP + Esterase % Stability at 90 min” value worked out at 70%. Also, in series [7], the “Esterase Est T½” value was greater than 1.5 h and the “Esterase % Stability at 90 min” value came to 86%. For the same compound, in series [5], the “Buffer % Stability at 90 min” value came out at 123% and the half-life at 2 μM was greater than 1.5 h.
The compound `CC(=O)CC(c1ccccc1)c1c(O)c2ccccc2oc1=O` (stereo not shown) [Warfarin, reference compound] yielded a concentration for half-maximal inhibition (IC50) in series [2] of 3 ± 0.8 µM.

What is called IC50 is the concentration at which inhibition is half-maximal. High values mean weaker potency, low ones greater potency.

Values taken from US7932405B2, “Halogenated ester derivatives of coumarins for the treatment of coagulation disorders” (Aryx Therapeutics, Inc., priority 2007, dated 2011).
